The structures appear in SMILES notation. Counter-ions that a name gives are not always drawn. Some results are limits rather than exact numbers.

The test deals with 293T-HRE-GFP-luc cells. Put plainly: Cell-Based Reporter Assay for IC50 Determinations. Conditions: 30 min normoxia then 6 hrs hypoxia (1% O2), luminescence, four-parameter logistic fit, read-out: Activity (IC50, HRE luciferase reporter). As to the method:
Cell-Based Reporter Assay for IC50 Determinations
293T-HRE-GFP-luc cells were routinely maintained in DMEM media (high glucose version with GlutaMAX and HEPES, Gibco, catalog #10564) supplemented with 10% fetal bovine serum and 2 μg/mL puromycin (Invitrogen, catalog #A11138-03) using a humidified incubator (normoxia conditions consisting of 37° C., 5% CO2 and ambient O2).
In preparation for the reporter assay, cells were harvested and resuspended in DMEM media (high glucose version with GlutaMAX and HEPES) supplemented with 10% fetal bovine serum. Cells were inoculated into 384-well white Culturplates (Perkin Elmer catalog #6007680) at a density of 12,000 cells/well in a volume of […]. The microplates were incubated overnight (approximately 17-19 hours) at 37° C. with 5% CO2 and ambient O2. Stock solutions of the test compounds were prepared in DMSO (Sigma, Catalog #D2650) and serially diluted 1:3 using DMSO. Compounds were additionally diluted (1:50) with culturemedium and 10 µL were added per well to the Culturplate. Following a 30 min. incubation under normoxia conditions, the plates were incubated in hypoxia for 6 hrs. (37° C., 5% CO2 and 1% O2). Steadylite Plus (Perkin Elmer, catalog #6016751) was then added ([…]), the plates were mixed on an orbital shaker at room temperature in the dark for 15 min., and luminescence was measured using an Envision plate reader (Perkin Elmer). IC50 values were calculated using a four-parameter logistic curve fit. Results are shown below in Table 2; ND indicates no data.
Usually IC50 stands for the concentration needed to halve the response being measured. Regarding `Cc1nc(-c2nc(-c3ccc(OC(F)(F)F)cc3)no2)oc1Cc1cccc(Br)c1` [Example 1, 5-(5-(3-Bromobenzyl)-4-methyloxazol-2-yl)-3-(4-(trifluoromethoxy)phenyl)-1,2,4-oxadiazole], the IC50 was in the range of 1000 to 10000 nM. The value for `Cc1nc(-c2nc(-c3ccc(OC(F)(F)F)cc3)no2)sc1Cc1cccc(N2CCN(C)CC2)c1` [Example 2, 5-(4-Methyl-5-(3-(4-methylpiperazin-1-yl)benzyl)thiazol-2-yl)-3-(4-(trifluoromethoxy)phenyl)-1,2,4-oxadiazole] was below 100 nM. `Cc1nc(-c2nc(-c3ccccc3)co2)sc1Cc1cccc(N2CCN(C)CC2)c1` [Example 3, 2-(4-Methyl-5-(3-(4-methylpiperazin-1-yl)benzyl)thiazol-2-yl)-4-phenyloxazole]: the IC50 lay within 1000 to 10000 nM. The value for `Cc1oc(-c2nc(-c3ccc(OC(F)(F)F)cc3)no2)nc1Cc1cccc(Br)c1` [Example 4, 5-(4-(3-Bromobenzyl)-5-methyloxazol-2-yl)-3-(4-(trifluoromethoxy)phenyl)-1,2,4-oxadiazole] was 1000 to 10000 nM; that for `Cc1oc(-c2nc(-c3ccc(OC(F)(F)F)cc3)no2)nc1Cc1cccc(N2CCN(C)CC2)c1` [Example 5, 1-methyl-4-(3-((5-methyl-2-(3-(4-(trifluoromethoxy)phenyl)-1,2,4-oxadiazol-5-yl)oxazol-4-yl)methyl)phenyl)piperazin-1-ium trifluoroacetate] was below 100 nM.

For `Cc1sc(-c2nc(-c3ccc(OC(F)(F)F)cc3)no2)nc1Cc1cccc(N2CCN(C)CC2)c1` [Example 6, 1-methyl-4-(3-((5-methyl-2-(3-(4-(trifluoromethoxy)phenyl)-1,2,4-oxadiazol-5-yl)thiazol-4-yl)methyl)phenyl)piperazin-1-ium trifluoroacetate], the IC50 was below 100 nM. On to `Cc1nc(-c2nc(-c3ccc(OC(F)(F)F)cc3)no2)oc1Cc1cccc(N2CCN(C)CC2)c1` [Example 7, 1-Methyl-4-(3-((4-methyl-2-(3-(4-(trifluoromethoxy)phenyl)-1,2,4-oxadiazol-5-yl)oxazol-5-yl)methyl)phenyl)piperazin-1-ium trifluoroacetate], for which the IC50 was below 100 nM. As for `Cn1nc(-c2nc(-c3ccc(OC(F)(F)F)cc3)no2)nc1Cc1ccnc(N2CCNCC2)c1` [Example 8, 4-(4-((1-Methyl-3-(3-(4-(trifluoromethoxy)phenyl)-1,2,4-oxadiazol-5-yl)-1H-1,2,4-triazol-5-yl)methyl)pyridin-2-yl)piperazin-1-ium formate], the figure is below 100 nM; as for `CN1CCN(c2cc(Cc3nc(-c4nc(-c5ccc(OC(F)(F)F)cc5)no4)nn3C)ccn2)CC1` [Example 9, 1-Methyl-4-(4-((1-methyl-3-(3-(4-(trifluoromethoxy)phenyl)-1,2,4-oxadiazol-5-yl)-1H-1,2,4-triazol-5-yl)methyl)pyridin-2-yl)piperazin-1-ium formate], below 100 nM. With `CN1CCN(c2cc(Cc3nc(-c4nc(-c5ccc(OC(F)(F)F)cc5)no4)cn3C)ccn2)CC1` [Example 10, 5-(1-Methyl-2-((2-(4-methylpiperazin-1-yl)pyridin-4-yl)methyl)-1H-imidazol-4-yl)-3-(4-(trifluoromethoxy)phenyl)-1,2,4-oxadiazole], the half-maximal inhibitory concentration (IC50) is below 100 nM. As for `Cc1oc(-c2nc(-c3ccc(OC(F)(F)F)cc3)no2)nc1Cc1cccc(N2CCOCC2)c1` [Example 11, 4-(3-((5-Methyl-2-(3-(4-(trifluoromethoxy)phenyl)-1,2,4-oxadiazol-5-yl)oxazol-4-yl)methyl)phenyl)morpholine], the figure is below 100 nM; as for `Cn1cc(-c2nc(-c3ccc(OC(F)(F)F)cc3)no2)nc1Cc1ccnc(N2CCNCC2)c1` [Example 12, 4-(4-((1-methyl-4-(3-(4-(trifluoro-methoxy)phenyl)-1,2,4-oxadiazol-5-yl)-1H-imidazol-2-yl)methyl)pyridin-2-yl)piperazin-1-ium formate], 1000 to 10000 nM. Regarding `Cc1oc(-c2nc(-c3ccc(OC(F)(F)F)cc3)no2)nc1Cc1cccc(N2CCCCC2)c1` [Example 13], the IC50 is below 100 nM. For `Cc1oc(-c2nc(-c3ccc(OC(F)(F)F)cc3)no2)nc1Cc1cccc(N(C)C)c1` [Example 14, N,N-dimethyl-3-((5-methyl-2-(3-(4-(trifluoromethoxy)phenyl)-1,2,4-oxadiazol-5-yl)oxazol-4-yl)methyl)aniline], the IC50 is below 100 nM.

The values above are taken from patent publication US9115120B2, “Heterocyclic modulators of HIF activity for treatment of disease” (Board of Regents, The University of Texas System, priority 2012, dated 2015).
